Source: PubChem BioAssay (NCI)
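Dose response: 5 concentrations. Exposure: 48 h. Format: 96-well plates. Endpoint: linear interpolation; highest concentration if not reached. Definition used: TGI = concentration required for complete inhibition of growth.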

What was measured:
Assay in all cases: NCI-60 cell line screen, 48 h
DU-145 prostate = tested on: DU-145 prostate
EKVX NSCLC = tested on: EKVX NSCLC
HL-60(TB) leukemia = tested on: HL-60(TB) leukemia
HS 578T breast = tested on: HS 578T breast
LOX IMVI melanoma = tested on: LOX IMVI melanoma
M14 melanoma = tested on: M14 melanoma
MDA-N = tested on: MDA-N
MOLT-4 leukemia = tested on: MOLT-4 leukemia
NCI-H522 lung = tested on: NCI-H522 lung
SF-268 CNS = tested on: SF-268 CNS
SF-295 CNS = tested on: SF-295 CNS
SK-MEL-5 melanoma = tested on: SK-MEL-5 melanoma
SN12C renal = tested on: SN12C renal
T-47D breast = tested on: T-47D breast
TK-10 renal = tested on: TK-10 renal
UACC-257 melanoma = tested on: UACC-257 melanoma
UACC-62 melanoma = tested on: UACC-62 melanoma
A498 renal = tested on: A498 renal
NCI/ADR-RES ovarian = tested on: NCI/ADR-RES ovarian
SNB-75 CNS = tested on: SNB-75 CNS

With `CSC(SC)=C1C(=O)NN=C1C` the TGI (DU-145 prostate) was > 100 µM, the TGI (EKVX NSCLC) was > 100 µM and the TGI (HL-60(TB) leukemia) was > 100 µM. The TGI (HS 578T breast) was > 100 µM, the TGI (LOX IMVI melanoma) was > 100 µM and the TGI (M14 melanoma) was > 100 µM. For the same molecule, the TGI (MDA-N) was > 100 µM, the TGI (MOLT-4 leukemia) was > 100 µM and the TGI (NCI-H522 lung) was > 100 µM. The TGI (SF-268 CNS) was > 100 µM, the TGI (SF-295 CNS) was > 100 µM and the TGI (SK-MEL-5 melanoma) was > 100 µM. The TGI (SN12C renal) was > 100 µM, the TGI (T-47D breast) was > 100 µM and the TGI (TK-10 renal) was > 100 µM. For the same molecule, the TGI (UACC-257 melanoma) was > 100 µM and the TGI (UACC-62 melanoma) was > 100 µM.

In the case of `CC(=O)OCCC1c2ccccc2-n2nc(-c3ccccc3)c(O)c21` (stereo unspecified), the TGI (A498 renal) is reported as 36.4 µM, the TGI (DU-145 prostate) is reported as 41.1 µM and the TGI (EKVX NSCLC) is reported as 36 µM. It also gave a TGI (HL-60(TB) leukemia) of 38.4 µM, a TGI (HS 578T breast) of 54.9 µM and a TGI (LOX IMVI melanoma) of 27.4 µM. The TGI (M14 melanoma) was 28.6 µM, the TGI (MDA-N) was 33.2 µM and the TGI (MOLT-4 leukemia) was 56.3 µM. It also gave a TGI (NCI-H522 lung) of 32.3 µM, a TGI (NCI/ADR-RES ovarian) of 47 µM and a TGI (SF-268 CNS) of 90.6 µM. The TGI (SF-295 CNS) was 45 µM, the TGI (SK-MEL-5 melanoma) was 33 µM and the TGI (SN12C renal) was 31.1 µM. It also gave a TGI (SNB-75 CNS) of 37.7 µM, a TGI (TK-10 renal) of 43.2 µM and a TGI (UACC-257 melanoma) of 32.5 µM.

For `COc1ncnc2c1cnn2Cc1cn(COCC(O)CO)nn1` (stereo unspecified), the TGI (A498 renal) was > 100 µM, the TGI (DU-145 prostate) was > 100 µM and the TGI (EKVX NSCLC) was > 100 µM. The TGI (HL-60(TB) leukemia) was > 100 µM, the TGI (LOX IMVI melanoma) was > 100 µM and the TGI (M14 melanoma) was > 100 µM. The TGI (MDA-N) was > 100 µM, the TGI (MOLT-4 leukemia) was > 100 µM and the TGI (NCI-H522 lung) was 26.2 µM. The TGI (NCI/ADR-RES ovarian) was > 100 µM, the TGI (SF-268 CNS) was 35 µM and the TGI (SF-295 CNS) was > 100 µM. For the same molecule, the TGI (SK-MEL-5 melanoma) was > 100 µM, the TGI (SN12C renal) was > 100 µM and the TGI (T-47D breast) was > 100 µM. The TGI (TK-10 renal) was > 100 µM, the TGI (UACC-257 melanoma) was > 100 µM and the TGI (UACC-62 melanoma) was > 100 µM.

For `COc1cc([C@@H]2c3cc4c(cc3[C@H](OC3OC5COC(C(C)C)OC5C(O)C3O)C3COC(=O)[C@@H]32)OCO4)cc(OC)c1O` (stereo partly specified), the TGI (A498 renal) was 22.8 µM, the TGI (EKVX NSCLC) was 47.5 µM and the TGI (HL-60(TB) leukemia) was > 100 µM. For the same molecule, the TGI (HS 578T breast) was 42.3 µM, the TGI (LOX IMVI melanoma) was 30 µM and the TGI (M14 melanoma) was 24.3 µM. The TGI (MDA-N) was 6.48 µM, the TGI (MOLT-4 leukemia) was > 100 µM and the TGI (NCI-H522 lung) was 37.1 µM. The TGI (NCI/ADR-RES ovarian) was > 100 µM, the TGI (SF-268 CNS) was 35 µM and the TGI (SF-295 CNS) was 21.7 µM. The TGI (SK-MEL-5 melanoma) was 22.6 µM, the TGI (T-47D breast) was 60.1 µM and the TGI (TK-10 renal) was 93.5 µM. The TGI (UACC-257 melanoma) was 22.3 µM and the TGI (UACC-62 melanoma) was 24.7 µM.

In the case of `O=c1[nH]c2cc(C(F)(F)F)ccc2nc1Cc1ccccc1`, the TGI (A498 renal) is reported as > 100 µM, the TGI (DU-145 prostate) is reported as > 100 µM and the TGI (EKVX NSCLC) is reported as > 100 µM. For the same molecule, the TGI (HL-60(TB) leukemia) was > 100 µM, the TGI (HS 578T breast) was > 100 µM and the TGI (LOX IMVI melanoma) was > 100 µM. For the same molecule, the TGI (M14 melanoma) was > 100 µM, the TGI (MOLT-4 leukemia) was > 100 µM and the TGI (NCI/ADR-RES ovarian) was > 100 µM. The TGI (SF-268 CNS) was > 100 µM, the TGI (SF-295 CNS) was > 100 µM and the TGI (SK-MEL-5 melanoma) was > 100 µM. The TGI (SNB-75 CNS) was > 100 µM, the TGI (T-47D breast) was > 100 µM and the TGI (TK-10 renal) was > 100 µM. For the same molecule, the TGI (UACC-257 melanoma) was > 100 µM and the TGI (UACC-62 melanoma) was > 100 µM.

For `S=C(NNC1=NCCCN1)Nc1ccccc1`, the TGI (A498 renal) was > 100 µM, the TGI (EKVX NSCLC) was > 100 µM and the TGI (HL-60(TB) leukemia) was > 100 µM. The TGI (HS 578T breast) was > 100 µM, the TGI (LOX IMVI melanoma) was > 100 µM and the TGI (MOLT-4 leukemia) was > 100 µM. For the same molecule, the TGI (NCI-H522 lung) was > 100 µM, the TGI (NCI/ADR-RES ovarian) was > 100 µM and the TGI (SF-268 CNS) was > 100 µM. For the same molecule, the TGI (SF-295 CNS) was > 100 µM, the TGI (SK-MEL-5 melanoma) was > 100 µM and the TGI (SNB-75 CNS) was > 100 µM. For the same molecule, the TGI (T-47D breast) was > 100 µM, the TGI (TK-10 renal) was > 100 µM and the TGI (UACC-257 melanoma) was > 100 µM. For the same molecule, the TGI (UACC-62 melanoma) was > 100 µM.

For `CCOC(=O)c1cccc(NC(=O)CBr)c1`, the TGI (A498 renal) was 14.7 µM, the TGI (DU-145 prostate) was 3.39 µM and the TGI (EKVX NSCLC) was 3.47 µM. The TGI (HL-60(TB) leukemia) was 3.58 µM, the TGI (HS 578T breast) was 5.28 µM and the TGI (LOX IMVI melanoma) was 0.407 µM. It also gave a TGI (M14 melanoma) of 2.75 µM, a TGI (MDA-N) of 2.82 µM and a TGI (MOLT-4 leukemia) of 1.29 µM. The TGI (NCI-H522 lung) was 0.0437 µM, the TGI (NCI/ADR-RES ovarian) was 4.39 µM and the TGI (SF-295 CNS) was 14.6 µM. The TGI (SK-MEL-5 melanoma) was 2.76 µM, the TGI (SN12C renal) was 0.907 µM and the TGI (SNB-75 CNS) was 3.31 µM. It also gave a TGI (TK-10 renal) of 3.18 µM, a TGI (UACC-257 melanoma) of 3.86 µM and a TGI (UACC-62 melanoma) of 2.92 µM.
